Experiment [1] has as its target benzodiazepine receptors. Briefly: Radioligand binding, displacement of [3H]-Flunitrazepam. Particulars: rat whole brain membranes, 0.5nM [3H] ligand; read-out: [^3H]-Flu Ki. How it is done:
(§1) An interaction with benzodiazepine receptors in the central nervous system may be indicative of anxiolytic activity since inhibition of benzodiazepine binding correlates with the clinical efficacy of benzodiazepines. [^3H]-Flunitrazepam and [^3H]-βCCE selectively label benzodiazepine receptors and displacement of this specific binding in vitro by novel compounds in well-washed, frozen rat whole brain membranes is measured essentially as described by Martin and Candy (1978). At the fixed concentration of 0.5nM used, specific binding of both [^3H] ligands represents 80-90% of the total radioactivity bound. Non-specific binding is defined by 10µM clonazepam for each ligand. IC50 values are calculated from log [dose] against % inhibition curves; Ki values are determined using the Cheng-Prusoff equation.
(In general: Loss of bound radioactivity is the signal in a displacement assay; it reports binding, not function.)

Experiment [2] has as its target benzodiazepine receptors. Description: Radioligand binding, displacement of [3H]-βCCE. The settings on record: rat whole brain membranes, 0.5nM [3H] ligand. As to the method: as §1

SMILES strings stand for the structures. Counter-ions that a name gives are not always drawn.

A word on the Ki: it is a measure of affinity in units of concentration, obtained from inhibition or displacement.

Consider `CCOC(=O)c1c(C)nc2ccsc2c1NNc1ccc(Cl)cc1` [Example E11, 7-(2-(4-Chlorophenyl)hydrazino)-5-methyl-thieno[3,2-b] pyridine-6-carboxylic acid, ethyl estet, monohydrochloride], for which the inhibition constant (Ki) in experiment [1] is 200 nM; in experiment [2], 290 nM. On the same counts, the results for `CCOC(=O)c1cnc2ccsc2c1NNc1ccc(OC)cc1` [Example E8, 7-{2-(4-Methoxyphenyl)hydrazino)-thieno[3,2-b]pyridine-6-carboxylic acid, ethyl ester, monbhydrochloride] are 2400 nM and 3300 nM. On the same counts, the results for `CCOC(=O)c1cnc2ccsc2c1NNc1ccc(C)cc1` [Example E5, 7-(2-(4-Methylphenyl)hyarazino)-thieno[3,2-b]pyridine-6-carboxylic acid, ethyl ester, tnonohydrochloride] are 6500 nM and above 100000 nM. With `O=c1c2c[nH]c3cscc3c-2nn1-c1ccc(Cl)cc1` [Example E31, 2-(4-Chlorophenyl)-2,5-dihydro-3H-pyrazolo[3,4-d]thieno [3,4-b]pyridin-3-one], in experiment [1], the inhibition constant Ki is 0.32 nM. In the case of `CCOC(=O)c1cnc2ccsc2c1NNc1ccccn1` [Example E6, 7-(2-(2-Pyridyl)hydrazino)-thieno[3,2-b]pyridihe-6-carboxylic acid, ethyl ester, monohydrochloride], the Ki in experiment [1] stood at 350 nM; in experiment [2], 360 nM. Take `CCc1cc2c3nn(-c4ccc(Cl)cc4)c(=O)c-3c[nH]c2s1` [Example E28, 2-(4-Chlorophenyl)-2,5-dihydro-7-ethyl-3H-pyrazolo[3,4-d] thieno[2,3-b]pyridin-3-one]: the Ki in experiment [1] was determined as 1.8 nM. On to `Cc1[nH]c2ccsc2c2nn(-c3ccccc3)c(=O)c1-2` [Example E25, 2,5-Dihydro-4-methl-2-phenyl-3H-pyrazolo[3,4-d]thieno [3,2-b]pyridin-3-one], for which the inhibitory constant (Ki) in experiment [1] is 99 nM; in experiment [2] it was 107 nM.

On to `Cc1ccc(-n2nc3c4sccc4[nH]cc-3c2=O)cc1` [Example E23, 2,5-Dihydro-2-(4-methylphenyl)-3H-pyrazolo[3,4-d]thieno [3,2-b]pyridin-3-one], for which the inhibition constant Ki in experiment [1] came out at 0.82 nM; in experiment [2], 0.31 nM. On the same counts, the results for `O=c1c2c[nH]c3ccsc3c-2nn1-c1cc(Cl)cc(Cl)c1` [Example E22, 2-(3,5-Dichlorophenyl)-2,5-dihy dro-3H-pyrazolo[3,9-d] thieno[3,2-b]pyrirlin-3-one] are 180 nM and 170 nM. With `CCOC(=O)c1c(C)nc2ccsc2c1NNc1ccccc1` [Example E10, 5-Methyl-7-(2-phenylhydrazino)-thieno[3,2-b]pyridine-6-carboxylic acid, ethyl ester, monohydrochloride], the Ki in experiment [1] came to 39000 nM; in experiment [2] it was 23000 nM. On the same counts, the results for `CCOC(=O)c1cnc2ccsc2c1NNc1ccccc1` [Example E1, 7-(2-Phenylhydrazino)-thieno[3,2-b]pyridine-6-carboxylic acid, ethyl ester, monohydrochloride] are 7000 nM and 5000 nM.

For `O=c1c2c[nH]c3ccsc3c-2nn1-c1ccccn1` [Example E30], in experiment [1], the inhibition constant (Ki) stood at 0.7 nM. Turning to `Cc1[nH]c2ccsc2c2nn(-c3ccc(Cl)cc3)c(=O)c1-2` [Example E20, 2-(4-Chlorophenyl)-2,5-dihydro-4-methyl-3H-pyrazolo [3,4-d]thieno[3,2-b]pyridin-3-one], the Ki in experiment [1] worked out at 1000 nM; in experiment [2] it was 2200 nM. On the same counts, the results for `O=c1c2c[nH]c3ccsc3c-2nn1-c1ccc(Cl)cc1` [Example E21, 2-(4-Chlorophenyl)-2,5-dihydro-3H-pyrazolo[3,4-d]thieno [3,2-b]pyridin-3-one] are 0.46 nM and 0.38 nM. On the same counts, the results for `CCOC(=O)c1cnc2ccsc2c1NNc1ccc([N+](=O)[O-])cc1` [Example E3, 7-(2-(4-Nitrophenyl)hydrazino)-thieno[3,2-b]pyridine-6-carboxylic acid, ethyl ester, monohydrochloride] are 1000 nM and 1500 nM. For the compound `CCc1cc2c3nn(-c4ccc(Cl)cc4)c(=O)c-3c(C)[nH]c2s1` [Example E29, 2-(4-Chlorophenyl)-2,5-dihydro-7-ethyl-4-methyl-3H-pyrazolo[3,4-d]thieno[2,3-b]pyridin-3-one], the Ki in experiment [1] stood at 568 nM. On the same count and under the same terms, the same measure for `COc1ccc(-n2nc3c4sccc4[nH]cc-3c2=O)cc1` [Example E24, 2,5-Dihydro-2-(4-methoxyphenl)-3H-pyrazolo[3,4-d]thieno [3,2-b]pyridin-3-one]: 0.23 nM.

The values are drawn from patent EP0126970A2, “Anxiolytic and anti-depressant thienopyridine derivatives” (BEECHAM GROUP PLC, priority 1983, dated 1984).
